Experimental data taken from patent US20250188088A1, “COMPOUND AND USE THEREOF” (ONQUALITY PHARMACEUTICALS CHINA LTD., priority 2022, published 2025).

What was measured:
[1] = Plasma stability, mini pig plasma; format: in vitro ADME, Mini Pigs; settings: 37° C.
Procedure: (§1) In addition, the plasma stability of these compounds was determined. Briefly, the determination method comprises the following steps: • 1) Thaw the frozen mixed plasma in a 37° C. water bath before testing, and then centrifuge at 4000 rpm for 5 min to remove blood clots; • 2) Add 98 μL blank plasma into each well of the 96-well reaction plate; • 3) In addition to the blank samples, add 2 μL of 100 μM working solution of test compound into each well; • 3) Incubate the reaction plate at 37° C. and start timing. Incubation times were 0, 10, 30, 60 and 120 minutes, respectively, with two replicate wells at each time point; • 4) Terminate the incubation at the corresponding time point, and add 400 μL of acetonitrile solution containing 200 ng/mL tolbutamide and 200 ng/mL labetalol to precipitate proteins; • 5) Shake each plate for 20 minutes, then centrifuge at 4000 rpm for 20 minutes, transfer 50 μL of supernatant to another 96-well plate, and dilute each sample with 100 μL of pure water; • 6) Analyze the sample by LC-MS/MS.

[2] = Plasma stability, human plasma; format: in vitro ADME, Humans; settings: 37° C.
Procedure: as §1
The experiment results are as follows, and it can be seen from the test results that the selected compounds are easily metabolized to the target compound in human plasma.

[3] = system: rash caused by monoclonal EGFR inhibitors; experiment: Treatment of rash caused by monoclonal EGFR inhibitors, topical ointment, rat model; format: in vivo; settings: SD rats
Procedure: An Experiment to Verify the Treatment of Rash Caused by Monoclonal EGFR Inhibitors with Topical Administration of Compounds of the Present Application on a Rat Animal Model After the SD rats were fed and adapted for one week (about 200 g), the rats were divided into 10 rats per group. The hair on the back of rats was gently removed with an electric razor one day before the experiment, and then an administration test was carried out. The EGFR monoclonal antibody solution diluted with normal saline was injected via tail vein twice a week, and the injection rate and time were shown in Table 4; the treatment experiment was started at the time point when rats developed a rash after continuous administration for 1-2 weeks. The experiments were divided into the administration group with the compound of the present application and the control group. During the treatment experiment, monoclonal antibody EGFR inhibitors were injected twice a week. the administration group applied the compound ointment of the present application on the back (about 3 cm*3 cm) of rats every day, and the control group applied blank matrix ointment on the back (about 3 cm*3 cm); after application, the rats were fixed with a fixed cyclinder for about 4 hours, and then the rats were released, with the residual drug at the application site wiped off with clean water, and put back into the cage. […] Table 4 lists the animal experiment combinations of monoclonal antibody EGFR inhibitors and the compound ointment of the present application, as well as the corresponding experiment results (wherein, the value in the control rate column=the number of rats whose rash is milder in the administration group than that in the control group/the total number of rats in the administration group×100%).

[4] = system: rash caused by small molecule EGFR inhibitors; experiment: Prevention of rash caused by small molecule EGFR inhibitors, topical ointment, rat model; format: in vivo, SD rats
Description: An Experiment to Verify the Prevention of Rash Caused by Small Molecule EGFR Inhibitors with Topical Administration of Compounds of the Present Application on a Rat Animal Model A rat animal model was established. After daily gavage of a small molecule EGFR inhibitor to female SD rats for […], the rats developed extensive rashes on their backs several days later (picture shown in FIG. 1). […] Similar to humans, rats developed skin rashes on their faces and bodies after oral administration of small molecule EGFR inhibitors. Both of them had the same etiology and very similar symptoms. Therefore, rats are a proper animal model for mimicking EGFR inhibitor-induced rash. After the SD rats were fed and adapted for one week (about 200 g), the rats were divided into 10 rats per group. The hair on the back of rats was gently removed with an electric razor one day before the experiment, and then an intragastric administration test was carried out. EGFR inhibitors were dissolved in a sterile aqueous solution, and diluted with PBS buffer; the amount of each gavage was not more than 2 mL, and the dosage was shown in Table 1. The experiment comprised the administration group and the control group. After intragastric administration, apply the ointment (type and concentration are shown in Table 1) of the compound used in the present application to the backs (about 3 cm*3 cm) of rats in the administration group; apply blank matrix ointment (about 0.5 g) to the backs (about 3 cm*3 cm) of rats in the control group; fix the rats with a fixed cylinder for about 4 hours after drug application, release the rats after 4 hours, wipe off the residual drug at the application site with clean water, and put them back into the cage. The frequency of intragastric administration of EGFR inhibitors is shown in Table 1, but the compounds of the present application and blank matrix ointment are applied only once a day. The intragastric administration and application test were repeated daily until an obvious rash appeared in the control group. […] Table 1 lists the animal experiment combination of various small molecule EGFR inhibitors and the compound ointment of the present application, as well as the corresponding experiment results (wherein, the value in the control rate column=the number of rats whose rash is milder in the administration group than that in the control group/the total number of rats in the administration group×100%).

[5] = system: rash caused by monoclonal EGFR inhibitors; experiment: Prevention of rash caused by monoclonal EGFR inhibitors, topical ointment, rat model; format: in vivo, SD rats
Procedure: An Experiment to Verify the Prevention of Rash Caused by Monoclonal EGFR Inhibitors with Topical Administration of Compounds of the Present Application on a Rat Animal Model After the SD rats were fed and adapted for one week (about 200 g), the rats were divided into 10 rats per group. The hair on the back of rats was gently removed with an electric razor one day before the experiment, and then an administration test was carried out. The experiments were divided into the administration group with the compound of the present application and the control group. The EGFR monoclonal antibody solution diluted with normal saline was injected via the tail vein twice a week, and the injection rate and time are shown in Table 2. After injection, the administration group applied the compound ointment of the present application on the backs (about 3 cm*3 cm) of rats every day, and the control group applied blank matrix ointment (about 0.5 g) to the backs (about 3 cm*3 cm) of rats every day. After drug application, the rats were fixed with a fixed cyclinder for 4 h; after that, the rats were released and the residual drug at the application site was wiped off with clear water. Monoclonal antibody EGFR inhibitors were injected via the tail vein twice a week, and the compound of the present application and blank ointment were applied once a day until obvious rashes appeared in the control group. […] Table 2 lists the animal experiment combinations of various monoclonal antibody EGFR inhibitors and the compound ointment of the present application, as well as the corresponding experiment results (wherein, the value in the control rate column=the number of rats whose rash is milder in the administration group than that in the control group/the total number of rats in the administration group×100%).

[6] = Panitumumab 6 mg/kg twice a week via tail vein, ointment 0.1 wt%, 8 days of drug application
[7] = BPI-7711 60 mg/kg once a day, ointment 5.0 wt% (A14: printed '^ 5%%') once a day, 12 days

| Structure (SMILES) | half-life at 2 µM [1] [min] | % Retained ([1]; 0 min) [%] | % Retained ([1]; 10 min) [%] | % Retained ([1]; 30 min) [%] | % Retained ([1]; 60 min) [%] | % Retained ([1]; 120 min) [%] | half-life at 2 µM [2] [min] | % Retained ([2]; 0 min) [%] | % Retained ([2]; 10 min) [%] | % Retained ([2]; 30 min) [%] | % Retained ([2]; 60 min) [%] | % Retained ([2]; 120 min) [%] | further results |
| --- | --- | --- | --- | --- | --- | --- | --- | --- | --- | --- | --- | --- | --- |
| CC(=O)OCCN(C)C(=O)n1ccc2c(N(C)[C@H]3CN(C(=O)CC#N)CC[C@H]3C)ncnc21 [Compound A13] | > 289 | 100.0 | 85.3 | 91.0 | 91.0 | 77.6 | 32.5 | 100.0 | 77.1 | 48.2 | 28.1 | 7.4 |  |
| C[C@@H]1CCN(C(=O)CC#N)C[C@@H]1N(C)c1ncnc2c1ccn2C(=O)N(C)CCOC(=O)c1ccccc1 [Compound A14] |  |  |  |  |  |  |  |  |  |  |  |  | Control Rate ([3]; Cetuximab 102 mg/kg twice a week via tail vein, ointment 1.0 wt%, 10 days of drug application): 20%; Control Rate ([3]; Cetuximab 102 mg/kg twice a week via tail vein, ointment 5.0 wt%, 10 days of drug application): 60%; Control Rate [3, 6]: 40%; Control Rate ([3]; Panitumumab 6 mg/kg twice a week via tail vein, ointment 3.0 wt%, 8 days of drug application): 70%; Control Rate [4, 7]: 70%; Control Rate ([4]; Dacomitinib 10 mg/kg once a day, ointment 1.0 wt% once a day, 12 days): 50%; Control Rate ([4]; Dacomitinib 10 mg/kg once a day, ointment 5.0 wt% once a day, 12 days): 65%; Control Rate ([4]; Osimertinib 60 mg/kg twice a day, ointment 0.3 wt% once a day, 10 days): 30%; Control Rate ([4]; Osimertinib 60 mg/kg twice a day, ointment 10.0 wt% once a day, 10 days): 80%; Control Rate ([4]; Zorifertinib 60 mg/kg once a day, ointment concentration printed '^ 3%%' (wt %) once a day, 14 days): 50% |
| C[C@@H]1CCN(C(=O)CC#N)C[C@@H]1N(C)c1ncnc2c1ccn2C(=O)N(C)CCOC(=O)c1ccncc1 [Compound A15] | 71.5 | 100.0 | 88.3 | 75.9 | 57.6 | 30.8 | 4.8 | 100.0 | 20.6 | 0.9 | 0.0 | 0.0 |  |
| C[C@@H]1CCN(C(=O)CC#N)C[C@@H]1N(C)c1ncnc2c1ccn2C(=O)N(C)CCOC(=O)C1CCN(C)CC1 [Compound A17] | 66.8 | 100.0 | 100.9 | 76.0 | 52.2 | 30.7 | 25 | 100.0 | 83.4 | 50.7 | 20.4 | 3.8 |  |
| CC(C)C(=O)OCCN(C)C(=O)n1ccc2c(N(C)[C@H]3CN(C(=O)CC#N)CC[C@H]3C)ncnc21 [Compound A19] | 24.3 | 100.0 | 73.0 | 46.2 | 18.5 | 3.3 | 2.6 | 100.0 | 5.1 | 0.0 | 0.0 | 0.0 |  |
| CCCCC(=O)OCCN(C)C(=O)n1ccc2c(N(C)[C@H]3CN(C(=O)CC#N)CC[C@H]3C)ncnc21 [Compound A22] | 6.3 | 100.0 | 25.5 | 1.8 | 0.1 | 0.1 | 3.1 | 100.0 | 4.5 | 0.1 | 0.1 | 0.0 | Control Rate ([5]; Cetuximab 100 mg/kg twice a week via tail vein, ointment 0.3 wt% once a day, 10 days): 20%; Control Rate ([5]; Cetuximab 100 mg/kg twice a week via tail vein, ointment 5.0 wt% once a day, 10 days): 40%; Control Rate ([5]; Panitumumab 10 mg/kg twice a week via tail vein, ointment 1.0 wt% once a day, 14 days): 30%; Control Rate ([5]; Panitumumab 10 mg/kg twice a week via tail vein, ointment 10.0 wt% once a day, 14 days): 65% |
| C[C@@H]1CCN(C(=O)CC#N)C[C@@H]1N(C)c1ncnc2c1ccn2C(=O)N(C)CCOC(=O)C(C)(C)C [Compound A23] | 41.1 | 100.0 | 75.1 | 51.3 | 39.2 | 12.0 | 20.8 | 100.0 | 60.2 | 40.1 | 18.5 | 1.6 |  |
| CN(CCOC(=O)C1CCCCC1)C(=O)n1ccc2c(-c3cnn([C@@H](CC#N)C4CCCC4)c3)ncnc21 [Compound A39] |  |  |  |  |  |  |  |  |  |  |  |  | Control Rate ([3]; Cetuximab 100 mg/kg twice a week via tail vein, ointment 0.1 wt%, 10 days of drug application): 20%; Control Rate ([3]; Cetuximab 100 mg/kg twice a week via tail vein, ointment 1.0 wt%, 10 days of drug application): 40%; Control Rate ([3]; Cetuximab 100 mg/kg twice a week via tail vein, ointment 5.0 wt%, 10 days of drug application): 80%; Control Rate ([3]; Cetuximab 100 mg/kg twice a week via tail vein, ointment 10.0 wt%, 10 days of drug application): 100%; Control Rate [3, 6]: 20%; Control Rate ([3]; Panitumumab 6 mg/kg twice a week via tail vein, ointment 1.0 wt%, 8 days of drug application): 30%; Control Rate ([3]; Panitumumab 6 mg/kg twice a week via tail vein, ointment 5.0 wt%, 8 days of drug application): 60%; Control Rate ([3]; Panitumumab 6 mg/kg twice a week via tail vein, ointment 10.0 wt%, 8 days of drug application): 70%; Control Rate [4, 7]: 90%; Control Rate ([4]; EAI045 80 mg/kg once a day, ointment 1.0 wt% once a day, 11 days): 20%; Control Rate ([4]; EAI045 80 mg/kg once a day, ointment 5.0 wt% once a day, 11 days): 65%; Control Rate ([4]; Osimertinib 60 mg/kg twice a day, ointment 0.1 wt% once a day, 10 days): 10%; Control Rate ([4]; Osimertinib 60 mg/kg twice a day, ointment 3.0 wt% once a day, 10 days): 30%; Control Rate ([4]; Zorifertinib 60 mg/kg once a day, ointment 5.0 wt% once a day, 14 days): 40% |
